Data as given in PubChem BioAssay AID1259407 (Chemical Carcinogenesis Research Information System (CCRIS), 2018).
Activity calls are given as the source filed them. No rule for the calls is given here.

Test system: CCRIS mutagenicity, Ames/micronucleus/aberration tests
Test: CCRIS mutagenicity studies
[1] = Test System: AMES SALMONELLA TYPHIMURIUM, Strain/Indicator: TA98, Metabolic Activation: NONE, Method: PREINCUBATION
[2] = Test System: AMES SALMONELLA TYPHIMURIUM, Strain/Indicator: TA100, Metabolic Activation: NONE, Method: PREINCUBATION

In the case of `C=C1C[C@@]23CC[C@H]4[C@@](C)(CCC[C@@]4(C)C(=O)O)[C@@H]2CC[C@]1(O)C3`, the mutagenic call (Test System: AMES SALMONELLA TYPHIMURIUM, Strain/Indicator: TA97, Metabolic Activation: NONE, Method: PREINCUBATION) is reported as “inactive; negative”, the mutagenic call (Test System: AMES SALMONELLA TYPHIMURIUM, Strain/Indicator: TA97, Metabolic Activation: RAT, LIVER, S-9, PCB, Method: PREINCUBATION) is reported as “inactive; negative” and the mutagenic call [1] is reported as “inactive; negative”. For the same compound, the mutagenic call (Test System: AMES SALMONELLA TYPHIMURIUM, Strain/Indicator: TA98, Metabolic Activation: RAT, LIVER, S-9, PCB, Method: PREINCUBATION) was “inactive; negative”, the mutagenic call (Test System: AMES SALMONELLA TYPHIMURIUM, Strain/Indicator: TA98, Metabolic Activation: RAT, LIVER, S-9, SODIUM PHENOBARBITAL AND 5,6-BENZOFLAVONE, Method: PREINCUBATION) was “inactive; negative” and the mutagenic call [2] was “inactive; negative”. For the same compound, the mutagenic call (Test System: AMES SALMONELLA TYPHIMURIUM, Strain/Indicator: TA100, Metabolic Activation: RAT, LIVER, S-9, PCB, Method: PREINCUBATION) was “inactive; negative”, the mutagenic call (Test System: AMES SALMONELLA TYPHIMURIUM, Strain/Indicator: TA100, Metabolic Activation: RAT, LIVER, S-9, SODIUM PHENOBARBITAL AND 5,6-BENZOFLAVONE, Method: PREINCUBATION) was “inactive; negative” and the mutagenic call (Test System: AMES SALMONELLA TYPHIMURIUM, Strain/Indicator: TA102, Metabolic Activation: NONE, Method: PREINCUBATION) was “inactive; negative”. The mutagenic call (Test System: AMES SALMONELLA TYPHIMURIUM, Strain/Indicator: TA102, Metabolic Activation: RAT, LIVER, S-9, PCB, Method: PREINCUBATION) was “inactive; negative”, the mutagenic call (Test System: AMES SALMONELLA TYPHIMURIUM, Strain/Indicator: TA104, Metabolic Activation: NONE, Method: PREINCUBATION) was “inactive; negative” and the mutagenic call (Test System: AMES SALMONELLA TYPHIMURIUM, Strain/Indicator: TA104, Metabolic Activation: RAT, LIVER, S-9, PCB, Method: PREINCUBATION) was “inactive; negative”. The mutagenic call (Test System: AMES SALMONELLA TYPHIMURIUM, Strain/Indicator: TM677, Metabolic Activation: NONE, Method: PREINCUBATION) was “inactive; negative”, the mutagenic call (Test System: AMES SALMONELLA TYPHIMURIUM, Strain/Indicator: TM677, Metabolic Activation: RAT, LIVER, MICROSOMES, AROCLOR 1254, Method: SUSPENSION/PLATE) was “active; positive” and the mutagenic call (Test System: AMES SALMONELLA TYPHIMURIUM, Strain/Indicator: TM677, Metabolic Activation: RAT, LIVER, S-9, AROCLOR 1254, Method: PREINCUBATION) was “active; positive”. The mutagenic call (Test System: AMES SALMONELLA TYPHIMURIUM, Strain/Indicator: TM677, Metabolic Activation: RAT, LIVER, S-9, AROCLOR 1254, Method: SUSPENSION/PLATE) was “active; positive”.
`OCCN(CCO)CCO` was tested, and the mutagenic call (End Point: IN VITRO CHROMOSOMAL ABERRATIONS, Test System: CHINESE HAMSTER OVARY CELLS, Metabolic Activation: NONE) was “inactive; negative”, the mutagenic call (End Point: IN VITRO CHROMOSOMAL ABERRATIONS, Test System: CHINESE HAMSTER OVARY CELLS, Metabolic Activation: RAT, LIVER, S-9, AROCLOR 1254) was “inactive; negative” and the mutagenic call (End Point: IN VITRO CHROMOSOMAL ABERRATIONS, Test System: CHO, Metabolic Activation: NONE) was “inactive; negative”. The mutagenic call (End Point: IN VITRO CHROMOSOMAL ABERRATIONS, Test System: CHO, Metabolic Activation: RAT, LIVER, S-9, AROCLOR 1254) was “inactive; negative”, the mutagenic call (End Point: IN VIVO MICRONUCLEUS, Test System: POLYCHROMATIC BLOOD LYMPHOCYTES, Species: MOUSE, Strain/Sex: B6C3F1/MALE, FEMALE, Route: DERMAL) was “inactive; negative” and the mutagenic call (Test System: AMES SALMONELLA TYPHIMURIUM, Strain/Indicator: TA98, Metabolic Activation: HAMSTER LIVER S-9, AROCLOR-1254 (10%), Method: PREINCUBATION) was “inactive; negative”. For the same compound, the mutagenic call (Test System: AMES SALMONELLA TYPHIMURIUM, Strain/Indicator: TA98, Metabolic Activation: HAMSTER, LIVER, S-9 (10%), AROCLOR 1254, Method: PREINCUBATION) was “inactive; negative”, the mutagenic call [1] was “inactive; negative” and the mutagenic call (Test System: AMES SALMONELLA TYPHIMURIUM, Strain/Indicator: TA98, Metabolic Activation: RAT LIVER S-9, AROCLOR-1254 (10%), Method: PREINCUBATION) was “inactive; negative”. For the same compound, the mutagenic call (Test System: AMES SALMONELLA TYPHIMURIUM, Strain/Indicator: TA98, Metabolic Activation: RAT, LIVER, S-9 (10%), AROCLOR 1254, Method: PREINCUBATION) was “inactive; negative”, the mutagenic call (Test System: AMES SALMONELLA TYPHIMURIUM, Strain/Indicator: TA100, Metabolic Activation: HAMSTER LIVER S-9, AROCLOR-1254 (10%), Method: PREINCUBATION) was “inactive; negative” and the mutagenic call (Test System: AMES SALMONELLA TYPHIMURIUM, Strain/Indicator: TA100, Metabolic Activation: HAMSTER, LIVER, S-9 (10%), AROCLOR 1254, Method: PREINCUBATION) was “inactive; negative”. The mutagenic call [2] was “inactive; negative”, the mutagenic call (Test System: AMES SALMONELLA TYPHIMURIUM, Strain/Indicator: TA100, Metabolic Activation: RAT LIVER S-9, AROCLOR-1254 (10%), Method: PREINCUBATION) was “inactive; negative” and the mutagenic call (Test System: AMES SALMONELLA TYPHIMURIUM, Strain/Indicator: TA100, Metabolic Activation: RAT, LIVER, S-9 (10%), AROCLOR 1254, Method: PREINCUBATION) was “inactive; negative”. The mutagenic call (Test System: AMES SALMONELLA TYPHIMURIUM, Strain/Indicator: TA1535, Metabolic Activation: HAMSTER LIVER S-9, AROCLOR-1254 (10%), Method: PREINCUBATION) was “inactive; negative”, the mutagenic call (Test System: AMES SALMONELLA TYPHIMURIUM, Strain/Indicator: TA1535, Metabolic Activation: HAMSTER, LIVER, S-9 (10%), AROCLOR 1254, Method: PREINCUBATION) was “inactive; negative” and the mutagenic call (Test System: AMES SALMONELLA TYPHIMURIUM, Strain/Indicator: TA1535, Metabolic Activation: NONE, Method: PREINCUBATION) was “inactive; negative”. For the same compound, the mutagenic call (Test System: AMES SALMONELLA TYPHIMURIUM, Strain/Indicator: TA1535, Metabolic Activation: RAT LIVER S-9, AROCLOR-1254 (10%), Method: PREINCUBATION) was “inactive; negative”, the mutagenic call (Test System: AMES SALMONELLA TYPHIMURIUM, Strain/Indicator: TA1535, Metabolic Activation: RAT, LIVER, S-9 (10%), AROCLOR 1254, Method: PREINCUBATION) was “inactive; negative” and the mutagenic call (Test System: AMES SALMONELLA TYPHIMURIUM, Strain/Indicator: TA1537, Metabolic Activation: HAMSTER LIVER S-9, AROCLOR-1254 (10%), Method: PREINCUBATION) was “inactive; negative”. The mutagenic call (Test System: AMES SALMONELLA TYPHIMURIUM, Strain/Indicator: TA1537, Metabolic Activation: HAMSTER, LIVER, S-9 (10%), AROCLOR 1254, Method: PREINCUBATION) was “inactive; negative”, the mutagenic call (Test System: AMES SALMONELLA TYPHIMURIUM, Strain/Indicator: TA1537, Metabolic Activation: NONE, Method: PREINCUBATION) was “inactive; negative” and the mutagenic call (Test System: AMES SALMONELLA TYPHIMURIUM, Strain/Indicator: TA1537, Metabolic Activation: RAT LIVER S-9, AROCLOR-1254 (10%), Method: PREINCUBATION) was “inactive; negative”. For the same compound, the mutagenic call (Test System: AMES SALMONELLA TYPHIMURIUM, Strain/Indicator: TA1537, Metabolic Activation: RAT, LIVER, S-9 (10%), AROCLOR 1254, Method: PREINCUBATION) was “inactive; negative”.
With `O=[N+]([O-])c1ccc(-c2cscn2)o1` the mutagenic call (Test System: AMES SALMONELLA TYPHIMURIUM, Strain/Indicator: TA100, Metabolic Activation: RAT, LIVER, S-9, KC500 OR PHENOBARBITAL, Method: LIQUID SUSPENSION) was “active; positive”.
